Laboratory results published in the NIST ThermoML archive (doi:10.1021/je900407u).
Numbers after ± are expanded uncertainties.

Experiment: isobaric coefficient of expansion
Conditions: Liquid, Micro DSCII

CCCCn1cc[n+](C)c1.F[B-](F)(F)F [1-butyl-3-methylimidazolium tetrafluoroborate]
isobaric coefficient of expansion
Conditions | 5000 kPa | 10000 kPa | 15000 kPa | 20000 kPa | 25000 kPa | 30000 kPa | 35000 kPa | 40000 kPa | 45000 kPa | 50000 kPa
278.15 K | 0.000605 ± 1.5e-05 1/K | 0.0006 ± 1.5e-05 1/K | 0.000592 ± 1.5e-05 1/K | 0.000586 ± 1.4e-05 1/K | 0.000581 ± 1.4e-05 1/K | 0.000575 ± 1.4e-05 1/K | 0.000571 ± 1.4e-05 1/K | 0.000564 ± 1.4e-05 1/K | 0.000559 ± 1.4e-05 1/K | 0.000553 ± 1.4e-05 1/K
288.15 K | 0.000598 ± 1.5e-05 1/K | 0.000592 ± 1.5e-05 1/K | 0.000587 ± 1.4e-05 1/K | 0.000582 ± 1.4e-05 1/K | 0.000577 ± 1.4e-05 1/K | 0.00057 ± 1.4e-05 1/K | 0.000566 ± 1.4e-05 1/K | 0.000557 ± 1.4e-05 1/K | 0.000555 ± 1.4e-05 1/K | 0.000553 ± 1.4e-05 1/K
298.15 K | 0.000594 ± 1.5e-05 1/K | 0.00059 ± 1.4e-05 1/K | 0.000581 ± 1.4e-05 1/K | 0.000575 ± 1.4e-05 1/K | 0.000571 ± 1.4e-05 1/K | 0.000563 ± 1.4e-05 1/K | 0.000558 ± 1.4e-05 1/K | 0.000552 ± 1.4e-05 1/K | 0.000547 ± 1.3e-05 1/K | 0.000545 ± 1.3e-05 1/K
308.15 K | 0.000588 ± 1.4e-05 1/K | 0.00058 ± 1.4e-05 1/K | 0.000575 ± 1.4e-05 1/K | 0.000569 ± 1.4e-05 1/K | 0.000561 ± 1.4e-05 1/K | 0.000557 ± 1.4e-05 1/K | 0.00055 ± 1.3e-05 1/K | 0.000547 ± 1.3e-05 1/K | 0.000542 ± 1.3e-05 1/K | 0.000535 ± 1.3e-05 1/K
318.15 K | 0.00058 ± 1.4e-05 1/K | 0.000577 ± 1.4e-05 1/K | 0.00057 ± 1.4e-05 1/K | 0.000561 ± 1.4e-05 1/K | 0.000558 ± 1.4e-05 1/K | 0.000552 ± 1.4e-05 1/K | 0.000547 ± 1.3e-05 1/K | 0.000543 ± 1.3e-05 1/K | 0.000536 ± 1.3e-05 1/K | 0.000532 ± 1.3e-05 1/K
328.15 K | 0.000576 ± 1.4e-05 1/K | 0.00057 ± 1.4e-05 1/K | 0.000563 ± 1.4e-05 1/K | 0.000559 ± 1.4e-05 1/K | 0.000551 ± 1.3e-05 1/K | 0.000544 ± 1.3e-05 1/K | 0.000541 ± 1.3e-05 1/K | 0.000534 ± 1.3e-05 1/K | 0.000528 ± 1.3e-05 1/K | 0.000523 ± 1.3e-05 1/K
338.15 K | 0.000571 ± 1.4e-05 1/K | 0.000566 ± 1.4e-05 1/K | 0.000561 ± 1.4e-05 1/K | 0.000552 ± 1.4e-05 1/K | 0.000547 ± 1.3e-05 1/K | 0.000543 ± 1.3e-05 1/K | 0.000536 ± 1.3e-05 1/K | 0.000531 ± 1.3e-05 1/K | 0.000526 ± 1.3e-05 1/K | 0.000522 ± 1.3e-05 1/K
348.15 K | 0.000569 ± 1.4e-05 1/K | 0.000566 ± 1.4e-05 1/K | 0.000557 ± 1.4e-05 1/K | 0.000552 ± 1.4e-05 1/K | 0.000545 ± 1.3e-05 1/K | 0.000539 ± 1.3e-05 1/K | 0.000535 ± 1.3e-05 1/K | 0.000528 ± 1.3e-05 1/K | 0.000524 ± 1.3e-05 1/K | 0.00052 ± 1.3e-05 1/K
